Assay results: article PMC10675174, “Design, Synthesis, and Repurposing of Rosmarinic Acid-β-Amino-α-Ketoamide Hybrids as Antileishmanial Agents” (Pharmaceuticals, 2023)

Assays:
[1] = tested on: promastigotes of L. infantum; details: cited from earlier work
[2] = tested on: L. donovani promastigotes; test: In vitro L. donovani promastigotes growth inhibition (resazurin-based assay); type: cell-based; details: Leishmania donovani, 72 h; for inhibition at 25 µM / inhibition at 50 µM: growth of L. donovani promastigotes, incubation 3 days, relative to control; for IC50: incubation for 3 days, from dose-response curves, read-out: IC50 against L. donovani promastigotes
Protocol: Using an in vitro promastigotes-based model, the activity of the synthesized target compounds 2a–i was assessed against the promastigote stage of L. donovani. A double-concentration assay was performed for each compound at 50 and 25 µM concentrations adopting a resazurin-based assay system. Erufosine was used as a positive reference standard drug.
Among the evaluated compounds, seven derivatives maintained a high inhibitory activity at 25 and 50 μM concentrations which was similar to erufosine. Therefore, they were advanced to assessment of potency to evaluate their quality as antileishmanial hit compounds. […] Erufosine was used as positive controls for comparison.
(§1) 2.1. In vitro L. donovani promastigotes-based evaluation model
(§2) 2.1.1. Cell culture of parasite
(§3) L. donovani MHOM/SD/62/1S-CL2D parasites (Department of PIV, Institut Pasteur, Paris,
(§4) France) were cultured as promastigotes at 28 °C in M199 medium (Sigma-Aldrich, St. Louis, MO,
(§5) USA) with 40 mM HEPES, 0.1 mM adenine, 0.0001% biotin, and 4.62 mM NaHCO3
(§6) supplemented with 10% foetal bovine serum (FBS, Gibco, Carlsbad, CA, USA), […]
(§7) penicillin (Gibco), and […] streptomycin (Gibco). Parasites were sub-cultured every 3 or
(§8) 4 days and maintained for 10 passages.
(§9) 2.1.2 Assay of parasite growth inhibition
(§10) The values of growth inhibition of L. donovani promastigotes were determined based on the
(§11) metabolism of resazurin to resorufin by aerobic respiration of metabolically active cells using 384-
(§12) well plates that were seeded with L. donovani promastigotes (5x10^4 cells per well) and incubated
(§13) with tested compounds for 3 days followed by addition of Resazurin sodium salt (200 µM; R7017;
(§14) Sigma-Aldrich, St. Louis, MO, USA) and further incubation for 5 h then the cells were fixed (4%
paraformaldehyde). The plates were analysed using a Victor3TM plate reader (PerkinElmer, Inc.,
Waltham, MA, USA) at 590 nm (emission) and 530 nm (excitation). Miltefosine and erufosine
were used as the reference standards. All measured and calculated values are the averages of
triplicates. The dose-response curves were generated by GraphPad Prism 6 software using a
sigmoidal dose-response equation with a variable hill slope option. […]

[3] = In vitro safety evaluation: cytotoxicity on THP-1 cells; type: cell-based; details: human, PMA-treated THP-1 monocytic cells, THP-1 human monocytic cell line
Protocol: As for the considerable toxicities of current antileishmanial therapies, a promising drug candidate should be selective eliciting no potential cytotoxicity towards human cells. […] The newly introduced hit compound needs to be safe and non-toxic to human cells. A comparison with the standard drug erufosine was performed. […] In light of these findings, it might be inferred that both cinnamoyl ketoamide hybrids 2g and 2h could be selective antileishmanial hit compounds for future development.
as §1, §2, §3, §4, §5, §6, §7, §8, §9, §10, §11, §12, §13, §14
paraformaldehyde). The plates were analysed using a Victor3TM plate reader (PerkinElmer, Inc., […]
were used as the reference standards. All measured and calculated values are the averages of […]
The images were acquired based on reading using an Operetta® automated microscope
(PerkinElmer, Inc., Waltham, MA 02451, USA). They were further analysed using ColumbusTM
(PerkinElmer, Inc. Waltham, MA, USA) software to quantify parasite numbers, and host cell
numbers. In brief, large-sized nucleus of host cells was first detected using DAPI signal and the […]

[4] = tested on: promastigotes of L. amazonensis; details: read-out: IC50 against promastigotes of L. amazonensis; cited from earlier work

Row | SMILES | IC50 [2] [µM] | IC50 against promastigotes of L. infantum [1] [µg/mL] | inhibition at 25 µM [2] [%] | inhibition at 50 µM [2] [%] | CC50 at 72 h [3] [µM] | IC50 ([1]; read-out: IC50 against promastigotes of L. infantum) [µM] | IC50 [4] [µM]
1 | O=C(/C=C/c1ccc(O)c(O)c1)OCCc1ccccc1 [CAPE, caffeic acid phenethyl ester] | – | 51.0 | – | – | – | – | –
2 | COc1ccc(CCNC(=O)C(=O)C(Cc2ccccc2)NC(=O)C=Cc2ccc(O)c(O)c2)cc1 (centres unmarked) [Compound 2b] | – | – | 44 ± 1.2 | 72.83 ± 0.4 | – | – | –
3 | CCCCC(=Cc1ccc(OC)c(OC)c1)C(=O)NC(Cc1ccccc1)C(=O)C(=O)NCCc1ccc(OC)cc1 (centres unmarked) [Compound 2i] | – | – | 79.8 ± 1.8 | 94.2 ± 1.2 | – | – | –
4 | CCCCCCCC/C=C\CCCCCCCCCCCCOP(=O)([O-])OCC[N+](C)(C)C [Erufosine, reference compound] | 9.8 ± 0.7 | – | 100 ± 1 | 107.6 ± 0.3 | 19.4 | – | –
5 | O=C(/C=C/c1ccc(O)c(O)c1)O[C@H](Cc1ccc(O)c(O)c1)C(=O)O [Rosmarinic acid] | – | – | – | – | – | 57.3 | 61
6 | O=C(/C=C/c1ccc(O)c(O)c1)O[C@@H]1C[C@](O)(C(=O)O)C[C@@H](O)[C@H]1O [chlorogenic, chlorogenic acid] | – | – | – | – | – | – | > 500

More lines, main results first:

Row | IC50 [2] [µM] | SMILES | IC50 against promastigotes of L. infantum [1] [µg/mL] | inhibition at 25 µM [2] [%] | inhibition at 50 µM [2] [%] | CC50 at 72 h [3] [µM] | IC50 ([1]; read-out: IC50 against promastigotes of L. infantum) [µM] | IC50 [4] [µM]
7 | > 100 | O=C(C=Cc1ccc(O)c(O)c1)NC(Cc1ccccc1)C(=O)C(=O)NCc1ccccc1 (centres unmarked) [Compound 2a] | – | 97.8 ± 1 | 103 ± 0.4 | – | – | –
8 | 87.3 ± 1.2 | CCC(=Cc1ccc(O)c(O)c1)C(=O)NC(Cc1ccccc1)C(=O)C(=O)NCc1ccccc1 (centres unmarked) [Compound 2c] | – | 104 ± 0.3 | 101 ± 0.2 | – | – | –
9 | 45.2 ± 0.9 | CCCC(=Cc1ccc(O)c(O)c1)C(=O)NC(Cc1ccccc1)C(=O)C(=O)NCc1ccccc1 (centres unmarked) [Compound 2d] | – | 107 ± 0.4 | 102 ± 0.1 | – | – | –
10 | 37.6 ± 2.1 | CCCC(=Cc1ccc(O)c(O)c1)C(=O)NC(Cc1ccccc1)C(=O)C(=O)NCCc1ccc(OC)cc1 (centres unmarked) [Compound 2e] | – | 104 ± 0.2 | 104 ± 0.1 | – | – | –
11 | 26.9 ± 1.4 | CCCCC(=Cc1ccc(O)c(O)c1)C(=O)NC(Cc1ccccc1)C(=O)C(=O)NCc1ccccc1 (centres unmarked) [Compound 2f] | – | 104 ± 0.4 | 100 ± 0.3 | – | – | –
12 | 9.5 ± 0.6 | CCCCC(=Cc1ccc(O)c(O)c1)C(=O)NC(Cc1ccccc1)C(=O)C(=O)NCCc1ccc(OC)cc1 (centres unmarked) [Compound 2g] | – | 107 ± 0.1 | 103 ± 0.1 | > 100 | – | –
13 | 8.8 ± 0.4 | CCCCC(=Cc1ccc(O)c(OC)c1)C(=O)NC(Cc1ccccc1)C(=O)C(=O)NCCc1ccc(OC)cc1 (centres unmarked) [Compound 2h] | – | 103 ± 0.2 | 100 ± 0.3 | > 100 | – | –
